Assay [1] has as its target T1, Recombinant human Plk-1 (6×His) (Homo sapiens, UniProt P53350).
T1 construct: 6xHis; made in house; host or cells: baculovirus-infected insect cells (Hi5)
Briefly: PLK enzyme assay. The assay is classed as biochemical. As to conditions: biotinylated casein and 33P-γ-ATP substrate, 90 minutes at room temperature, SPA beads; read-out: PLK-1 IC50 [nM] Inhibition. On the procedure: Recombinant human Plk-1 (6×His) was purified from baculovirus-infected insect cells (Hi5).
10 ng of (produced in a recombinant manner and purified) PLK enzyme is incubated for 90 minutes at room temperature with biotinylated casein and 33P-γ-ATP as a substrate in a volume of 15 μl in 384-well Greiner small-volume microtiter plates (final concentrations in the buffer: 660 ng/ml of PLK; 0.7 μmol of casein, 0.5 μmol of ATP incl. 400 nCi/ml of 33P-γ-ATP; 10 mmol of MgCl2, 1 mmol of MnCI2; 0.01% NP40; 1 mmol of DTT, protease inhibitors; 0.1 mmol of Na2VO3 in 50 mmol of HEPES, pH 7.5). To complete the reaction, 5 μl of stop solution (500 μmol of ATP; 500 mmol of EDTA; 1% Triton X100; 100 mg/ml of streptavidin-coated SPA beads in PBS) is added. After the microtiter plate is sealed by film, the beads are sedimented by centrifuging (10 minutes, 1500 rpm). The incorporation of 33P-γ-ATP in casein is intended as a measurement of enzyme activity by β-counting.
Test substances are used in various concentrations (0 μmol, as well as in the range of 0.01-30 μmol). The final concentration of the solvent dimethyl sulfoxide is 1.5% in all batches.

The test system of assay [2] is human MaTu breast tumour cells. The assay is described as follows: Proliferation assay (crystal violet). The class given is cell-based. As to conditions: 96 h, 4 days incubation, read-out: Inhibition of the Tumour Cell Proliferation (MaTu) IC50. On the procedure:
Cultivated human MaTu breast tumour cells were flattened out at a density of 5000 cells/measuring point in a 96-well multititer plate in 200 μl of the corresponding growth medium. After 24 hours, the cells of one plate (zero-point plate) were colored with crystal violet (see below), while the medium of the other plates was replaced by fresh culture medium (200 μl), to which the test substances were added at various concentrations (0 μm, as well as in the range of 0.01-30 μm; the final concentration of the solvent dimethyl sulfoxide was 0.5%). The cells were incubated for 4 days in the presence of test substances. The cell proliferation was determined by coloring the cells with crystal violet: the cells were fixed by adding 20 μl/measuring point of an 11% glutaric aldehyde solution for 15 minutes at room temperature. After three washing cycles of the fixed cells with water, the plates were dried at room temperature. The cells were colored by adding 100 μl/measuring point of a 0.1% crystal violet solution (pH was set at 3 by adding acetic acid). […] The extinction was determined by photometry at a wavelength of 595 nm. The change of cell growth, in percent, was calculated by standardization of the measured values to the extinction values of the zero-point plate (=0%) and the extinction of the untreated (0 μm) cells (=100%).

T1 sequence (P53350 whole entry): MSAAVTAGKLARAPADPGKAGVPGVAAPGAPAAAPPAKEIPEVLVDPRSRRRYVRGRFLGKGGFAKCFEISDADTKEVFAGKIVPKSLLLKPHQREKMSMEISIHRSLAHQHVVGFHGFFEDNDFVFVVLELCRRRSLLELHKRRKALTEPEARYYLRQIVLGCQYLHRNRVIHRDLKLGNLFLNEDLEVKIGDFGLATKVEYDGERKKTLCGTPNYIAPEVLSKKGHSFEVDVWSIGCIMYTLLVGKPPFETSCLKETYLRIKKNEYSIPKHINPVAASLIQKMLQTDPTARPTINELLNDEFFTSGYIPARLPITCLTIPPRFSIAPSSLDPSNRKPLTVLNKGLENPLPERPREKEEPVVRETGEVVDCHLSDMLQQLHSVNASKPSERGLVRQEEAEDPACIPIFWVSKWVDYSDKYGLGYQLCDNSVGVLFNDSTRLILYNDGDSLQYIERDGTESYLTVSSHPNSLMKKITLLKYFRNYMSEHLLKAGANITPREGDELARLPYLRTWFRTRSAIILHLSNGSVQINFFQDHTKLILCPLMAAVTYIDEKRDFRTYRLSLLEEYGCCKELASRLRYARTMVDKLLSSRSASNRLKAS

For `C#CCNC(=O)/C(C#N)=c1\sc(=Cc2ccc(O)cc2)c(=O)n1CC` [Example 8], the IC50 in assay [1] was determined as 39 nM; in assay [2] it was 3200 nM. As for `CCNC(=O)/C(C#N)=c1\sc(=Cc2ccc(O)cc2)c(=O)n1CC` [Example 3], in assay [1], the IC50 stood at 230 nM.

Consider `C#CCNC(=O)/C(C#N)=c1\sc(=Cc2ccc(N3CCCC3)cc2)c(=O)n1CC` [Example 10], for which the IC50 in assay [1] stood at 23 nM.

These data come from patent US20070010565A1, “New thiazolidinones without basic nitrogen, their production and use as pharmaceutical agents” (priority 2005, published 2007).
